Results as given in patent publication US9962453B2, “Immunogenic compound” (ALTIMMUNE UK LIMITED, priority 2013, dated 2018).
Where a name gives a salt, the structure may show the parent alone. No end group written: not given here. PEG‑FIM = not defined here

Experiments:
human TLR7 = target: T1, human TLR7 (Homo sapiens, UniProt Q9NYK1); assay: Human TLR7 HEK-Blue reporter gene assay (NF-kappaB activation, SEAP); format: cell-based; settings: in comparison with R848
T1 construct: host or cells: HEK-Blue-hTLR7 (HEK293)
T1 sequence (Q9NYK1 27-1049): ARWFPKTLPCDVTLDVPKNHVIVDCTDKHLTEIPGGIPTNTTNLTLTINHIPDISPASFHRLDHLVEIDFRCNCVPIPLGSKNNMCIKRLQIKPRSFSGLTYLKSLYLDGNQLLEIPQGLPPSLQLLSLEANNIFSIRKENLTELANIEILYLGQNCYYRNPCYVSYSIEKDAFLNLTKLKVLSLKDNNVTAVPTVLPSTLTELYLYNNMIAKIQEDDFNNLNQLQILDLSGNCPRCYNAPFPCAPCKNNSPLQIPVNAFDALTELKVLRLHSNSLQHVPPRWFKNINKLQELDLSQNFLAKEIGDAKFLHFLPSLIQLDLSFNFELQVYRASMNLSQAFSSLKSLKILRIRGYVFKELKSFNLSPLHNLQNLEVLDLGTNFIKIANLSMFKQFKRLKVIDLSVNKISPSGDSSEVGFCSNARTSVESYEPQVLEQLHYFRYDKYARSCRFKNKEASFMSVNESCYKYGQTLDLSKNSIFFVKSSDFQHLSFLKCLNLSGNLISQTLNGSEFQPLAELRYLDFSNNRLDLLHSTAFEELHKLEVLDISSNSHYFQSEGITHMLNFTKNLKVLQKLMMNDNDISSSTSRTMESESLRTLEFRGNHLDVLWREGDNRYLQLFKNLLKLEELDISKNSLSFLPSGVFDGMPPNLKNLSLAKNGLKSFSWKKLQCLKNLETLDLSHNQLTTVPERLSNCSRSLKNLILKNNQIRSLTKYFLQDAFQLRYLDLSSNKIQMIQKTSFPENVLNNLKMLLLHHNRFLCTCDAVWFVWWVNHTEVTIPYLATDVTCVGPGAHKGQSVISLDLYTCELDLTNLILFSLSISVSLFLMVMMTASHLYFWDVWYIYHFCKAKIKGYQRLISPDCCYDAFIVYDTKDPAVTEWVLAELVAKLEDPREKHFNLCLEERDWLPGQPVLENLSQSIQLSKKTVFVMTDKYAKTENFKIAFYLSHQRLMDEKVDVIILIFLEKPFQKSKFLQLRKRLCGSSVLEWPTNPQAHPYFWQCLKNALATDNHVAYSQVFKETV
Method: (§1) The activity of different TLR-7 or TLR-8 agonist were tested using human TLR-specific HEK-Blue™ reporter gene assays (Invivogen, France). HEK-Blue™-hTLR7 cells and HEK-Blue™-hTLR8 cells were obtained by co-transfection of the human TLR7 gene or human TLR8 genes and an inducible SEAP (secreted embryonic alkaline phosphatase) reporter gene into HEK293 cells. The SEAP gene is placed under the control of the IFN-β minimal promoter fused to five NF-kappaB and AP-1-binding sites. Stimulation with a TLR ligand activates NF-kappaB and AP-1 which induce the production of SEAP. Cells were maintained in HEK-Blue™ selection medium containing Blasticidin, Zeocin and Normocin. HEK-Blue™ cells were incubated at a density of 10^5 cells/mL in a volume of 200 ul in 96 well plates. In the presence of the HEK-Blue™ detection media, the secretion of SEAP (proportional to the to the NF-kappaB induction) was quantified at […].

human TLR8 = target: T2, human TLR8 (Homo sapiens, UniProt Q9NR97); assay: Human TLR8 HEK-Blue reporter gene assay (NF-kappaB activation, SEAP); format: cell-based; settings: in comparison with R848
T2 construct: host or cells: HEK-Blue-hTLR8 (HEK293)
T2 sequence (Q9NR97 27-1041): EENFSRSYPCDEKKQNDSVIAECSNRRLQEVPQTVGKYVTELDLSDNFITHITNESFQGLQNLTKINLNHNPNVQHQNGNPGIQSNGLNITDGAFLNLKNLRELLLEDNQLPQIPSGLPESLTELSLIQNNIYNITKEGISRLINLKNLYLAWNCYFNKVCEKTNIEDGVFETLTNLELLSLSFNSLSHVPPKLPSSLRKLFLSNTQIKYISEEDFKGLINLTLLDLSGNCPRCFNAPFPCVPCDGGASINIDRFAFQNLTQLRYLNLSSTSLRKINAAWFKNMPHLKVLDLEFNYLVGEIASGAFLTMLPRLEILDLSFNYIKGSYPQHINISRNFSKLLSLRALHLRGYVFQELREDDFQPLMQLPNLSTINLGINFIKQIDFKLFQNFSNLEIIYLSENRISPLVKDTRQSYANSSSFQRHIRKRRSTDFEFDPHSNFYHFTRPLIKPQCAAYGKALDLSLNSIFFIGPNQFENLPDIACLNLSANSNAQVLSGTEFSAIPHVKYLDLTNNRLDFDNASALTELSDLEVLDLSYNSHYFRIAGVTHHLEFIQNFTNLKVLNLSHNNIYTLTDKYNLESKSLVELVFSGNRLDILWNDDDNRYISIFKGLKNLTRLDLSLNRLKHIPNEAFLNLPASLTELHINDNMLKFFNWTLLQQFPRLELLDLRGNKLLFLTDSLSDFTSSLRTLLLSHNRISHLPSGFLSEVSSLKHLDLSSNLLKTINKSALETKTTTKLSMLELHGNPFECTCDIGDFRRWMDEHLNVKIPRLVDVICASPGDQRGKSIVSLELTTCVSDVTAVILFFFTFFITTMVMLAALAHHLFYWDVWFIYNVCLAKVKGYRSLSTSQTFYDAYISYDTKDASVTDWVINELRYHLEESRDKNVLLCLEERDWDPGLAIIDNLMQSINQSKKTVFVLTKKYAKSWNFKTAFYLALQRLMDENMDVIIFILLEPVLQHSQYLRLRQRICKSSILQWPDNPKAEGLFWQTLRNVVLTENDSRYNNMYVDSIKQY
Method: as §1

[1] = tested on: T cell immune response to FP-02.2 vaccine peptides; format: in vivo, BALB/c mice; settings: conclusions of Example 2

Compound	NF-kappaB activation in HEK-293 cells expressing TLR-7 (human TLR7)	NF-kappaB activation in HEK-293 cells expressing TLR-8 (human TLR8)	adjuvanticity, conjugates versus free R848 [1]
RLK(PEG-FIM)-NH2 (Arg-Leu-Lys(PEG‑FIM)-NH2; reading uncertain; also: printed as RLK(PEG-FIM)-NH2) [RLK-PEG-FIM-01]	also active in the TLR-7 and TLR-8 cell line but to a much lesser extent compared to R848	also active in the TLR-7 and TLR-8 cell line but to a much lesser extent compared to R848	
CCOCc1nc2c(N)nc3ccccc3c2n1CC(C)(C)O [Peptide R848, [4-Amino-2-(ethoxymethyl)-1H-imidazo[4,5-c]quinolin-1-yl]-2-methyl-2-propanol, HCl, reference compound]	highly active	highly active	little to no-adjuvanticity
